“And” between values parts separate entries of the source, which are not always exact repeats. Equal entries are not always repeated. Where two headings read alike, the source gives them in different places.
How the values were obtained:
[1] = system: DosR-regulated genes (dosR, hspX and tgs1); format: cell-based, Mycobacterium tuberculosis
DosRST regulon = format: cell-based; details: 40 μM, 6 days
DosS = format: biochemical, Mycobacterium tuberculosis
DosT = DosT (Mycobacterium tuberculosis, UniProt P9WGK1, G115L); format: biochemical
CDC1551(ΔdosR) mutant = format: cell-based; details: for log2 Fold change: DosR mutant, HC101A vs DMSO; for Counts per million (CPM): DosR mutant treated with HC101A, replicates 1, 2

C[C@@H]1CC[C@H]2[C@@H](C)C(=O)O[C@@H]3O[C@]4(C)CC[C@@H]1[C@]32OO4 [HC101A, artemisinin, reference compound]
resistance to artemisinin of DosT (G115L) vs WT DosT or DosT (G85L) [1]: ~5 fold
genes inhibited that are not modulated in the CDC1551(ΔdosR) mutant (DosRST regulon): 157 genes
genes downregulated by compound that are also downregulated in the CDC1551(ΔdosR) mutant (DosRST regulon; >2-fold, p<0.05): 85 genes
oxidation of DosS (E87L) and DosS (G117L) proteins by artemisinin (DosS): resistant to oxidation
response of DosT (G115L) protein to artemisinin (DosT): exhibits artemisinin resistance
downregulated genes in CDC1551(ΔdosR) mutant treated with compound (CDC1551(ΔdosR) mutant; 40 μM, 6 days, >2-fold, p<0.05): 69 genes
log2 Fold change (CDC1551(ΔdosR) mutant; gene MT0169 Rv0160c PE): −1.408
log2 Fold change (CDC1551(ΔdosR) mutant; gene MT0258 Rv0244c fadE5): −1.069
log2 Fold change (CDC1551(ΔdosR) mutant; gene MT0273 Rv0260c): −1.854
Counts per million (CPM) (CDC1551(ΔdosR) mutant; gene MT0292 Rv0280 PPE): 31.79 CPM and 16.54 CPM
log2 Fold change (CDC1551(ΔdosR) mutant; gene MT0292 Rv0280 PPE): −1.247
Counts per million (CPM) (CDC1551(ΔdosR) mutant; gene MT0329 Rv0315): 113.2 CPM and 189.1 CPM
log2 Fold change (CDC1551(ΔdosR) mutant; gene MT0329 Rv0315): −1.246
Counts per million (CPM) (CDC1551(ΔdosR) mutant; gene MT0456 Rv0440 groEL2): 5,842.91 CPM and 4,666.11 CPM
log2 Fold change (CDC1551(ΔdosR) mutant; gene MT0456 Rv0440 groEL2): −1.245
Counts per million (CPM) (CDC1551(ΔdosR) mutant; gene MT0483 Rv0467 aceA): 884.5 CPM and 561.1 CPM
log2 Fold change (CDC1551(ΔdosR) mutant; gene MT0483 Rv0467 aceA): −1.499
Counts per million (CPM) (CDC1551(ΔdosR) mutant; gene MT0484): 179.4 CPM and 142.8 CPM
log2 Fold change (CDC1551(ΔdosR) mutant; gene MT0484): −1.278
Counts per million (CPM) (CDC1551(ΔdosR) mutant; gene MT0493 Rv0475): 790.8 CPM and 938.1 CPM
log2 Fold change (CDC1551(ΔdosR) mutant; gene MT0493 Rv0475): −1.077
log2 Fold change (CDC1551(ΔdosR) mutant; gene MT0532 Rv0511 cysG): 1.218
log2 Fold change (CDC1551(ΔdosR) mutant; gene MT0533 Rv0512 hemB): 1.276
log2 Fold change (CDC1551(ΔdosR) mutant; gene MT0583 Rv0557): 1.113
log2 Fold change (CDC1551(ΔdosR) mutant; gene MT0586 Rv0560c): 1.95
log2 Fold change (CDC1551(ΔdosR) mutant; gene MT0658 Rv0630c recB): 1.021
log2 Fold change (CDC1551(ΔdosR) mutant; gene MT0705 Rv0676c mmpL5): 1.881
log2 Fold change (CDC1551(ΔdosR) mutant; gene MT0706 Rv0677c mmpS5): 1.662
log2 Fold change (CDC1551(ΔdosR) mutant; gene MT0706.1 Rv0678): 1.572
log2 Fold change (CDC1551(ΔdosR) mutant; gene MT0772.5 Rv0747 PE_PGRS): 1.043
log2 Fold change (CDC1551(ΔdosR) mutant; gene MT0808 Rv0784): 2.116
Counts per million (CPM) (CDC1551(ΔdosR) mutant; gene MT0901 Rv0878c PPE): 18.57 CPM and 12.14 CPM
log2 Fold change (CDC1551(ΔdosR) mutant; gene MT0901 Rv0878c PPE): −1.047
Counts per million (CPM) (CDC1551(ΔdosR) mutant; gene MT0908 Rv0885): 437.9 CPM and 441.4 CPM
log2 Fold change (CDC1551(ΔdosR) mutant; gene MT0908 Rv0885): −3.4
Counts per million (CPM) (CDC1551(ΔdosR) mutant; gene MT0909 Rv0886 fprB): 103.6 CPM and 55.4 CPM
log2 Fold change (CDC1551(ΔdosR) mutant; gene MT0909 Rv0886 fprB): −3.149
Counts per million (CPM) (CDC1551(ΔdosR) mutant; gene MT0911 Rv0888): 9.416 CPM and 8.907 CPM
log2 Fold change (CDC1551(ΔdosR) mutant; gene MT0911 Rv0888): −1.599
Counts per million (CPM) (CDC1551(ΔdosR) mutant; gene MT0915.1): 9.867 CPM and 9.495 CPM
log2 Fold change (CDC1551(ΔdosR) mutant; gene MT0915.1): −1.202
log2 Fold change (CDC1551(ΔdosR) mutant; gene MT0956 Rv0929 pstC2): 1.037
Counts per million (CPM) (CDC1551(ΔdosR) mutant; gene MT1019 Rv0990c): 62.69 CPM and 83.49 CPM
log2 Fold change (CDC1551(ΔdosR) mutant; gene MT1019 Rv0990c): −1.236
Counts per million (CPM) (CDC1551(ΔdosR) mutant; gene MT1020): 529.4 CPM and 1,032.48 CPM
log2 Fold change (CDC1551(ΔdosR) mutant; gene MT1020): −1.261
log2 Fold change (CDC1551(ΔdosR) mutant; gene MT1073 Rv1043c): 1.069
log2 Fold change (CDC1551(ΔdosR) mutant; gene MT1123 Rv1091 PE_PGRS): 1.015
Counts per million (CPM) (CDC1551(ΔdosR) mutant; gene MT1224 Rv1187 rocA): 50.05 CPM and 29.85 CPM
log2 Fold change (CDC1551(ΔdosR) mutant; gene MT1224 Rv1187 rocA): −1.028
Counts per million (CPM) (CDC1551(ΔdosR) mutant; gene MT1233 Rv1195 PE): 282.5 CPM and 86.53 CPM
log2 Fold change (CDC1551(ΔdosR) mutant; gene MT1233 Rv1195 PE): −1.537
log2 Fold change (CDC1551(ΔdosR) mutant; gene MT1296 Rv1257c): 1.198
log2 Fold change (CDC1551(ΔdosR) mutant; gene MT1297 Rv1258c): 1.744
log2 Fold change (CDC1551(ΔdosR) mutant; gene MT1303 Rv1265): 1.132
Counts per million (CPM) (CDC1551(ΔdosR) mutant; gene MT1385): 26.31 CPM and 28.68 CPM
log2 Fold change (CDC1551(ΔdosR) mutant; gene MT1385): −1.733
log2 Fold change (CDC1551(ΔdosR) mutant; gene MT1424 Rv1380 pyrB): 1.245
log2 Fold change (CDC1551(ΔdosR) mutant; gene MT1425 Rv1381 pyrC): 1.176
log2 Fold change (CDC1551(ΔdosR) mutant; gene MT1426): 1.289
log2 Fold change (CDC1551(ΔdosR) mutant; gene MT1427 Rv1383 car A): 1.005
log2 Fold change (CDC1551(ΔdosR) mutant; gene MT1428 Rv1384 carB): 1.115
log2 Fold change (CDC1551(ΔdosR) mutant; gene MT1429 Rv1385 pyrF): 1.522
Counts per million (CPM) (CDC1551(ΔdosR) mutant; gene MT1430 Rv1386 PE): 77.39 CPM and 47.87 CPM
log2 Fold change (CDC1551(ΔdosR) mutant; gene MT1430 Rv1386 PE): −1.005
Counts per million (CPM) (CDC1551(ΔdosR) mutant; gene MT1431 Rv1387 PPE): 317.7 CPM and 543.6 CPM
log2 Fold change (CDC1551(ΔdosR) mutant; gene MT1431 Rv1387 PPE): −1.201
Counts per million (CPM) (CDC1551(ΔdosR) mutant; gene MT1484 Rv1439c): 6.965 CPM and 6.852 CPM
log2 Fold change (CDC1551(ΔdosR) mutant; gene MT1484 Rv1439c): −1.508
Counts per million (CPM) (CDC1551(ΔdosR) mutant; gene MT1585.1): 293.5 CPM and 393.7 CPM
log2 Fold change (CDC1551(ΔdosR) mutant; gene MT1585.1): −2.24
Counts per million (CPM) (CDC1551(ΔdosR) mutant; gene MT1586 Rv535 Rv1535): 44.69 CPM and 38.96 CPM
log2 Fold change (CDC1551(ΔdosR) mutant; gene MT1586 Rv535 Rv1535): −1.971
log2 Fold change (CDC1551(ΔdosR) mutant; gene MT1620 Rv1569 bioF): 1.182
Counts per million (CPM) (CDC1551(ΔdosR) mutant; gene MT1627): 22.44 CPM and 21.44 CPM
log2 Fold change (CDC1551(ΔdosR) mutant; gene MT1627): −1.25
Counts per million (CPM) (CDC1551(ΔdosR) mutant; gene MT1628 Rv1592c): 334.3 CPM and 332.3 CPM
log2 Fold change (CDC1551(ΔdosR) mutant; gene MT1628 Rv1592c): −1.21

From patent US11717508B2, “Compounds, compositions, and methods for inhibiting bacterial growth” (priority 2016, dated 2023)
